Experimental data as given in US9278990B2, “Substituted nucleotide analogs” (priority 2010, dated 2016).

Test system: Huh-7 cells containing the self-replicating, subgenomic HCV replicon
Experiment: HCV replicon assay (luciferase reporter)
Assay type: cell-based
Conditions: Hepatitis C virus, Huh-7, 72 h
Protocol: Huh-7 cells containing the self-replicating, subgenomic HCV replicon with a stable luciferase (LUC) reporter were cultured in Dulbecco's modified Eagle's medium (DMEM) containing 2 mM L-glutamine and supplemented with 10% heat-inactivated fetal bovine serum (FBS), 1% penicillin-streptomyocin, 1% nonessential amino acids, and 0.5 mg/mL G418.
On the first day, 5,000 HCV replicon cells were plated per well in a 96-well plate. On the following day, test compounds were solubilized in 100% DMSO to 100× the desired final testing concentration. Each compound was then serially diluted (1:3) up to 9 different concentrations. Compounds in 100% DMSO are reduced to 10% DMSO by diluting 1:10 in cell culture media. The compounds were diluted to 10% DMSO with cell culture media, which were used to dose the HCV replicon cells in 96-well format. The final DMSO concentration was 1%. The HCV replicon cells were incubated at 37° C. for 72 hours. At 72 hours, cells were processed when the cells are still subconfluent. Compounds that reduce the LUC signal are determined by Bright-Glo Luciferase Assay (Promega, Madison, Wis.). Percent Inhibition was determined for each compound concentration in relation to the control cells (untreated HCV replicon) to calculate the EC50.

| SMILES | EC50 [µM] |
| --- | --- |
| COC(=O)[C@H](C)NP(=S)(OC[C@H]1O[C@@H](n2ccc(=O)[nH]c2=O)[C@](C)(O)[C@@H]1O)Oc1cccc2ccccc12 (some centres unmarked) | < 1 |
| CC(C)OC(=O)[C@H](C)NP(=S)(OC[C@H]1O[C@@H](n2ccc(=O)[nH]c2=O)[C@](C)(F)[C@@H]1O)Oc1ccccc1 (some centres unmarked) | 1 to 10 |
| CC(C)OC(=O)[C@H](C)NP(=S)(OC[C@H]1O[C@@H](n2ccc(=O)[nH]c2=O)[C@](C)(O)[C@@H]1O)Oc1ccccc1 (some centres unmarked) | < 1 |
| C[C@H](NP(=S)(OC[C@H]1O[C@@H](n2ccc(=O)[nH]c2=O)[C@](C)(F)[C@@H]1O)Oc1ccccc1)C(=O)OC1CCCCC1 (some centres unmarked) | < 1 |
| C[C@H](NP(=S)(OC[C@H]1O[C@@H](n2ccc(=O)[nH]c2=O)[C@](C)(F)[C@@H]1O)Oc1ccccc1)C(=O)OCC(C)(C)C (some centres unmarked) | < 1 |
| C[C@H](NP(=S)(OC[C@H]1O[C@@H](n2ccc(=O)[nH]c2=O)[C@](C)(O)[C@@H]1O)Oc1ccccc1)C(=O)OCC(C)(C)C (some centres unmarked) | < 1 |
| C[C@H](NP(=S)(OC[C@H]1O[C@@H](n2ccc(=O)[nH]c2=O)[C@](C)(O)[C@@H]1O)Oc1ccccc1)C(=O)OC1CCCCC1 (some centres unmarked) | < 1 |
| CC(C)OC(=O)[C@H](C)NP(=S)(OC[C@H]1O[C@@H](n2ccc(=O)[nH]c2=O)[C@](C)(O)[C@@H]1O)Oc1cccc2ccccc12 (some centres unmarked) | < 1 |
| C[C@H](NP(=S)(OC[C@H]1O[C@@H](n2ccc(=O)[nH]c2=O)[C@](C)(O)[C@@H]1O)Oc1cccc2ccccc12)C(=O)OC1CCCCC1 (some centres unmarked) | < 1 |
| C[C@H](NP(=S)(OC[C@H]1O[C@@H](n2ccc(=O)[nH]c2=O)[C@](C)(O)[C@@H]1O)Oc1cccc2ccccc12)C(=O)OCC(C)(C)C (some centres unmarked) | < 1 |
| CC(C)OC(=O)[C@H](C)N[P@@](=S)(OC[C@H]1O[C@@H](n2ccc(=O)[nH]c2=O)[C@](C)(O)[C@@H]1O)Oc1ccccc1 | < 1 |
| CC(C)OC(=O)[C@H](C)N[P@](=S)(OC[C@H]1O[C@@H](n2ccc(=O)[nH]c2=O)[C@](C)(O)[C@@H]1O)Oc1ccccc1 | < 1 |
| [2H]C([2H])(OP(=S)(N[C@@H](C)C(=O)OC(C)C)Oc1ccccc1)[C@H]1O[C@@H](n2ccc(=O)[nH]c2=O)[C@](C)(O)[C@@H]1O (some centres unmarked) | < 1 |
| CC(C)OC(=O)[C@@H](NP(=S)(OC[C@H]1O[C@@H](n2ccc(=O)[nH]c2=O)[C@](C)(O)[C@@H]1O)Oc1ccccc1)C(C)C (some centres unmarked) | 10 to 100 |
| CC(C)C[C@H](NP(=S)(OC[C@H]1O[C@@H](n2ccc(=O)[nH]c2=O)[C@](C)(O)[C@@H]1O)Oc1ccccc1)C(=O)OC(C)C (some centres unmarked) | 1 to 10 |
| C[C@H](NP(=S)(OC[C@H]1O[C@@H](n2cnc3c(=O)[nH]c(N)nc32)[C@](C)(O)[C@@H]1O)Oc1ccccc1)C(=O)OCC(C)(C)C (some centres unmarked) | < 1 |
| C[C@H](NP(=S)(OC[C@H]1O[C@@H](n2cnc3c(=O)[nH]c(N)nc32)[C@](C)(F)[C@@H]1O)Oc1ccccc1)C(=O)OCC(C)(C)C (some centres unmarked) | < 1 |
| CC(C)OC(=O)[C@H](C)NP(=S)(OC[C@H]1O[C@@H](n2cnc3c(=O)[nH]c(N)nc32)[C@](C)(O)[C@@H]1O)Oc1ccccc1 (some centres unmarked) | < 1 |
| C[C@H](NP(=S)(OC[C@H]1O[C@@H](n2cnc3c(=O)[nH]c(N)nc32)[C@](C)(O)[C@@H]1O)Oc1ccccc1)C(=O)OC1CCCCC1 (some centres unmarked) | < 1 |

| SMILES | EC50 [µM] |
| --- | --- |
| COc1nc(N)nc2c1ncn2[C@@H]1O[C@H](COP(=S)(N[C@@H](C)C(=O)OC(C)C)Oc2ccccc2)[C@@H](O)[C@@]1(C)F (some centres unmarked) | < 1 |
| COc1nc(N)nc2c1ncn2[C@@H]1O[C@H](COP(=S)(N[C@@H](C)C(=O)OC(C)C)Oc2ccccc2)[C@@H](O)[C@@]1(C)O (some centres unmarked) | < 1 |
| COc1nc(N)nc2c1ncn2[C@@H]1O[C@H](COP(=S)(N[C@@H](C)C(=O)OCC(C)(C)C)Oc2ccccc2)[C@@H](O)[C@@]1(C)O (some centres unmarked) | < 1 |
| COc1nc(N)nc2c1ncn2[C@@H]1O[C@H](COP(=S)(N[C@@H](C)C(=O)OC2CCCCC2)Oc2ccccc2)[C@@H](O)[C@@]1(C)O (some centres unmarked) | < 1 |
| COc1nc(N)nc2c1ncn2[C@@H]1O[C@H](COP(=S)(N[C@@H](C)C(=O)OCC(C)(C)C)Oc2cccc3ccccc23)[C@@H](O)[C@@]1(C)O (some centres unmarked) | < 1 |
| COc1nc(N)nc2c1ncn2[C@@H]1O[C@H](COP(=S)(N[C@@H](C)C(=O)OC2CCCCC2)Oc2cccc3ccccc23)[C@@H](O)[C@@]1(C)O (some centres unmarked) | < 1 |
| CC(C)OC(=O)[C@H](C)NP(=S)(OC[C@H]1O[C@@H](n2cnc3c(NC4CC4)nc(N)nc32)[C@](C)(O)[C@@H]1O)Oc1ccccc1 (some centres unmarked) | < 1 |
| CC(C)OC(=O)[C@H](C)NP(=S)(OC[C@H]1O[C@@H](n2cnc3c(N)nc(N)nc32)[C@](C)(O)[C@@H]1O)Oc1ccccc1 (some centres unmarked) | < 1 |
| C=CCNc1nc(N)nc2c1ncn2[C@@H]1O[C@H](COP(=S)(N[C@@H](C)C(=O)OC(C)C)Oc2ccccc2)[C@@H](O)[C@@]1(C)O (some centres unmarked) | < 1 |
| CC(C)OC(=O)[C@H](C)NP(=S)(OC[C@H]1O[C@@H](n2cnc3c(Cl)nc(N)nc32)[C@](C)(O)[C@@H]1O)Oc1ccccc1 (some centres unmarked) | < 1 |
| C[C@H](NP(=S)(OC[C@H]1O[C@@H](n2cnc3c(N)ncnc32)[C@](C)(O)[C@@H]1O)Oc1ccccc1)C(=O)OCC(C)(C)C (some centres unmarked) | < 1 |
| CC(C)OC(=O)[C@H](C)NP(=S)(OC[C@H]1O[C@@H](n2cnc3c(N)ncnc32)[C@](C)(O)[C@@H]1O)Oc1cccc2ccccc12 (some centres unmarked) | < 1 |
| CC(C)OC(=O)[C@H](C)NP(=S)(OC[C@@]1(N=[N+]=[N-])O[C@@H](n2ccc(=O)[nH]c2=O)[C@H](O)[C@@H]1O)Oc1ccccc1 (some centres unmarked) | 10 to 100 |
| C[C@H](NP(=S)(OC[C@@]1(N=[N+]=[N-])O[C@@H](n2ccc(=O)[nH]c2=O)[C@H](O)[C@@H]1O)Oc1ccccc1)C(=O)OCC(C)(C)C (some centres unmarked) | 10 to 100 |
| CC(C)OC(=O)[C@H](C)NP(=S)(OC[C@H]1O[C@@H](n2ccc(=O)[nH]c2=O)[C@](C)(O)[C@@H]1O)Oc1ccc(F)cc1 (some centres unmarked) | < 1 |
| CC(C)OC(=O)[C@H](C)NP(=S)(OC[C@H]1O[C@@H](n2ccc(=O)[nH]c2=O)[C@](C)(O)[C@@H]1O)Oc1ccc(Cl)cc1 (some centres unmarked) | < 1 |
| CC(C)OC(=O)[C@H](C)NP(=S)(OC[C@H]1O[C@@H](n2ccc(=O)[nH]c2=O)[C@](C)(O)[C@@H]1O)Oc1ccccc1Cl (some centres unmarked) | < 1 |
| CC(C)OC(=O)[C@H](C)NP(=S)(OC[C@H]1O[C@@H](n2ccc(=O)[nH]c2=O)[C@](C)(O)[C@@H]1O)Oc1ccc(F)c(Cl)c1 (some centres unmarked) | < 1 |
| Cc1ccc(OP(=S)(N[C@@H](C)C(=O)OC(C)C)OC[C@H]2O[C@@H](n3ccc(=O)[nH]c3=O)[C@](C)(O)[C@@H]2O)cc1 (some centres unmarked) | < 1 |

| SMILES | EC50 [µM] |
| --- | --- |
| Cc1ccccc1OP(=S)(N[C@@H](C)C(=O)OC(C)C)OC[C@H]1O[C@@H](n2ccc(=O)[nH]c2=O)[C@](C)(O)[C@@H]1O (some centres unmarked) | < 1 |
| COc1ccc(OP(=S)(N[C@@H](C)C(=O)OC(C)C)OC[C@H]2O[C@@H](n3ccc(=O)[nH]c3=O)[C@](C)(O)[C@@H]2O)cc1 (some centres unmarked) | < 1 |
| CC(C)OC(=O)[C@H](C)NP(=S)(OC[C@H]1O[C@@H](n2ccc(=O)[nH]c2=O)[C@](C)(O)[C@@H]1O)Oc1cccc2ncccc12 (some centres unmarked) | < 1 |
| CC(C)OC(=O)[C@H](C)NP(=S)(OC[C@H]1O[C@@H](n2ccc(=O)[nH]c2=O)[C@](C)(O)[C@@H]1O)Oc1cccnc1 (some centres unmarked) | < 1 |
| CSCC[C@H](NP(=S)(OC[C@H]1O[C@@H](n2ccc(=O)[nH]c2=O)[C@](C)(O)[C@@H]1O)Oc1ccccc1)C(=O)OC(C)C (some centres unmarked) | 1 to 10 |
| CC(C)OC(=O)CNP(=S)(OC[C@H]1O[C@@H](n2ccc(=O)[nH]c2=O)[C@](C)(O)[C@@H]1O)Oc1ccccc1 (some centres unmarked) | 1 to 10 |
| CC[C@H](NP(=S)(OC[C@H]1O[C@@H](n2ccc(=O)[nH]c2=O)[C@](C)(O)[C@@H]1O)Oc1ccccc1)C(=O)OC(C)C (some centres unmarked) | < 1 |
| CCC[C@H](NP(=S)(OC[C@H]1O[C@@H](n2ccc(=O)[nH]c2=O)[C@](C)(O)[C@@H]1O)Oc1ccccc1)C(=O)OC(C)C (some centres unmarked) | < 1 |
| CC(C)OC(=O)[C@H](Cc1ccccc1)NP(=S)(OC[C@H]1O[C@@H](n2ccc(=O)[nH]c2=O)[C@](C)(O)[C@@H]1O)Oc1ccccc1 (some centres unmarked) | 1 to 10 |
| CC(C)OC(=O)C(C)NP(=S)(OC[C@H]1O[C@@H](n2cnc3c(=O)[nH]c(N)nc32)C(C)(O)C1O)Oc1ccccc1 (some centres unmarked) | < 1 |
| COc1nc(N)nc2c1ncn2[C@@H]1O[C@H](COP(=S)(NC(C)C(=O)OC(C)C)Oc2ccccc2)C(O)C1(C)O (some centres unmarked) | < 1 |
| COc1nc(N)nc2c1ncn2[C@@H]1O[C@H](COP(=S)(NC(C)C(=O)OC(C)C)Oc2ccccc2)C(O)C1(C)F (some centres unmarked) | < 1 |
| CC(C)OC(=O)C(C)NP(=S)(OC[C@@]1(N=[N+]=[N-])O[C@@H](n2ccc(=O)[nH]c2=O)[C@H](O)[C@@H]1O)Oc1ccccc1 (some centres unmarked) | 10 to 100 |
| CCC(=O)O[C@@H]1[C@@H](COP(=S)(N[C@@H](C)C(=O)OC(C)C)Oc2ccccc2)O[C@@H](n2ccc(=O)[nH]c2=O)[C@]1(C)OC(=O)CC (some centres unmarked) | < 1 |
| CCC(=O)O[C@@H]1[C@@H](COP(=S)(N[C@@H](C)C(=O)OC(C)C)Oc2ccccc2)O[C@@H](n2ccc(=O)[nH]c2=O)[C@]1(C)O (some centres unmarked) | < 1 |
| CC(C)OC(=O)[C@H](C)NP(=S)(OC[C@H]1O[C@@H](n2ccc(=O)[nH]c2=O)[C@](C)(OC(=O)C(C)C)[C@@H]1OC(=O)C(C)C)Oc1ccccc1 (some centres unmarked) | < 1 |
| [2H]C([2H])(OP(=S)(N[C@@H](C)C(=O)OC(C)C)Oc1ccccc1)[C@H]1O[C@@H](n2ccc(=O)[nH]c2=O)[C@](C)(O)[C@@H]1OC(C)=O (some centres unmarked) | < 1 |
| CC(C)OC(=O)[C@H](C)NP(=S)(OC[C@H]1O[C@@H](n2ccc(=O)[nH]c2=O)[C@](C)(O)[C@@H]1OC(=O)C(C)C)Oc1ccccc1 (some centres unmarked) | < 1 |
